Test results from patent US8802597B2, “Herbicidal pyrimidines” (E I du Pont de Nemours and Company, priority 2003, dated 2014).

Assays:
Assay type in all cases: in vivo
[1] = system: cocklebur (XANST, Xanthium strumarium L.); experiment: Test H mixtures of compound 1 with diflufenzopyr; conditions: foliage spray
Source text: (§1) This test evaluated the effect of mixtures of compound 1 with diflufenzopyr on several plant species. Seeds of test plants consisting of large crabgrass (DIGSA, Digitaria sanguinalis (L.) Scop.), lambsquarters (CHEAL, Chenopodium album L.), redroot pigweed (AMARE, Amaranthus retroflexus L.), cocklebur (XANST, Xanthium strumarium L.), barnyardgrass (ECHCG; Echinochloa crus-galli (L.) Beauv.), corn (ZEAMD, Zea mays L. cv. ‘Pioneer 33G26’), scarlet (red) morningglory (IPOCO, Ipomoea coccinea L.), giant foxtail (SETFA, Setaria faberi Herrm.) and velvetleaf (ABUTH, Abutilon theophrasti Medik.) were planted in pots containing Redi-Earth® planting medium (Scotts Company, 14111 Scottslawn Road, Marysville, Ohio 43041) comprising spaghnum peat moss, vermiculite, wetting agent and starter nutrients. Seeds of small-seeded species were planted about 1 cm deep; larger seeds were planted about 2.5 cm deep. Plants were grown in a greenhouse using supplemental lighting to maintain a photoperiod of about 14 hours; daytime and nighttime temperatures were about 25-30° C. and 22-25° C., respectively. Balanced fertilizer was applied through the watering system. The plants were grown for 7 to 11 days so that at time of treatment the plants ranged in height from 2 to 18 cm (1- to 4-leaf stage). Treatments consisted of Compound 1 and diflufenzopyr alone and in combination, suspended or dissolved in an aqueous solvent comprising glycerin and Tween nonionic surfactant and applied as a foliage spray using a volume of 541 L/ha. Each treatment was replicated four times. […] Treated plants and controls were maintained in the greenhouse and watered as needed with care to not wet the foliage for the first 24 hours after treatment. The effects on the plants approximately 3 weeks after treatment were visually compared to untreated controls. Plant response ratings were calculated as the means of the four replicates, based on a scale of 0 to 100 where 0 is no effect and 100 is complete control. Colby's Equation was used to determine the herbicidal effects expected from the mixtures. Colby's Equation (Colby, S. R. “Calculating Synergistic and Antagonistic Responses of Herbicide Combinations,” Weeds, 15(1), pp 20-22 (1967)) calculates the expected additive effect of herbicidal mixtures, and for two active ingredients is of the form: Pa+b=Pa+Pb−(PaPb/100) wherein Pa+b is the percentage effect of the mixture expected from additive contribution of the individual components, • Pa is the observed percentage effect of the first active ingredient at the same use rate as in the mixture, and • Pb is the observed percentage effect of the second active ingredient at the same use rate as in the mixture.

[2] = system: corn (ZEAMD, Zea mays L. cv. ‘Pioneer 33G26’); experiment: Test H mixtures of compound 1 with diflufenzopyr; conditions: foliage spray
Source text: as §1

[3] = system: barnyardgrass (ECHCG; Echinochloa crus-galli (L.) Beauv.); experiment: Test H mixtures of compound 1 with diflufenzopyr; conditions: foliage spray
Source text: as §1

[4] = system: redroot pigweed (AMARE, Amaranthus retroflexus L.); experiment: Test H mixtures of compound 1 with diflufenzopyr; conditions: foliage spray
Source text: as §1

[5] = system: velvetleaf (ABUTH, Abutilon theophrasti Medik.); experiment: Test H mixtures of compound 1 with diflufenzopyr; conditions: foliage spray
Source text: as §1

[6] = system: large crabgrass (DIGSA, Digitaria sanguinalis (L.) Scop.); experiment: Test H mixtures of compound 1 with diflufenzopyr; conditions: foliage spray
Source text: as §1

[7] = system: lambsquarters (CHEAL, Chenopodium album L.); experiment: Test H mixtures of compound 1 with diflufenzopyr; conditions: foliage spray
Source text: as §1

[8] = system: scarlet (red) morningglory (IPOCO, Ipomoea coccinea L.); experiment: Test H mixtures of compound 1 with diflufenzopyr; conditions: foliage spray
Source text: as §1

[9] = system: giant foxtail (SETFA, Setaria faberi Herrm.); experiment: Test H mixtures of compound 1 with diflufenzopyr; conditions: foliage spray
Source text: as §1

[10] = system: wheat (TRZAW; Triticum aestivum); experiment: Test K postemergence; conditions: 15 days
[11] = system: sulfonylurea herbicide-susceptible (SU-susceptible) catchweed bedstraw (GALAP; Galium aparine); experiment: Test K postemergence; conditions: 15 days

CCOC(=O)c1nc(C2CC2)nc(N)c1Br [Compound 1, ethyl 6-amino-5-bromo-2-cyclopropyl-4-pyrimidinecarboxylate]
Obsd. observed effect (0 to 100 scale) ([1]; Cmpd 1 31 g a.i./ha): 87 | Obsd. observed effect (0 to 100 scale) ([1]; Cmpd 1 62 g a.i./ha): 98 | Obsd. observed effect (0 to 100 scale) ([1]; Cmpd 1 125 g a.i./ha): 97 | Obsd. observed effect (0 to 100 scale) ([2]; Cmpd 1 31 g a.i./ha): 2 | Obsd. observed effect (0 to 100 scale) ([2]; Cmpd 1 62 g a.i./ha): 5 | Obsd. observed effect (0 to 100 scale) ([2]; Cmpd 1 125 g a.i./ha): 22 | Obsd. observed effect (0 to 100 scale) ([3]; Cmpd 1 31 g a.i./ha): 25 | Obsd. observed effect (0 to 100 scale) ([3]; Cmpd 1 62 g a.i./ha): 42 | Obsd. observed effect (0 to 100 scale) ([3]; Cmpd 1 125 g a.i./ha): 90 | Obsd. observed effect (0 to 100 scale) ([4]; Cmpd 1 31 g a.i./ha): 91 | Obsd. observed effect (0 to 100 scale) ([4]; Cmpd 1 62 g a.i./ha): 97 | Obsd. observed effect (0 to 100 scale) ([4]; Cmpd 1 125 g a.i./ha): 100 | Obsd. observed effect (0 to 100 scale) ([5]; Cmpd 1 31 g a.i./ha): 14 | Obsd. observed effect (0 to 100 scale) ([5]; Cmpd 1 62 g a.i./ha): 26 | Obsd. observed effect (0 to 100 scale) ([5]; Cmpd 1 125 g a.i./ha): 93 | Obsd. observed effect (0 to 100 scale) ([6]; Cmpd 1 31 g a.i./ha): 7 | Obsd. observed effect (0 to 100 scale) ([6]; Cmpd 1 62 g a.i./ha): 37 | Obsd. observed effect (0 to 100 scale) ([6]; Cmpd 1 125 g a.i./ha): 81 | Obsd. observed effect (0 to 100 scale) ([7]; Cmpd 1 31 g a.i./ha): 98 | Obsd. observed effect (0 to 100 scale) ([7]; Cmpd 1 62 g a.i./ha): 100 | Obsd. observed effect (0 to 100 scale) ([7]; Cmpd 1 125 g a.i./ha): 100 | Obsd. observed effect (0 to 100 scale) ([8]; Cmpd 1 31 g a.i./ha): 92 | Obsd. observed effect (0 to 100 scale) ([8]; Cmpd 1 62 g a.i./ha): 97 | Obsd. observed effect (0 to 100 scale) ([8]; Cmpd 1 125 g a.i./ha): 100 | Obsd. observed effect (0 to 100 scale) ([9]; Cmpd 1 31 g a.i./ha): 2 | Obsd. observed effect (0 to 100 scale) ([9]; Cmpd 1 62 g a.i./ha): 4 | Obsd. observed effect (0 to 100 scale) ([9]; Cmpd 1 125 g a.i./ha): 65 | Plant response rating (0 to 100 scale) ([10]; 4 g a.i./ha): 0 | Plant response rating (0 to 100 scale) ([10]; 8 g a.i./ha): 0 | Plant response rating (0 to 100 scale) ([10]; 16 g a.i./ha): 0 | Plant response rating (0 to 100 scale) ([10]; 31 g a.i./ha): 25 | Plant response rating (0 to 100 scale) ([10]; 62 g a.i./ha): 30 | Plant response rating (0 to 100 scale) ([10]; 125 g a.i./ha): 38 | Plant response rating (0 to 100 scale) ([11]; 4 g a.i./ha): 63 | Plant response rating (0 to 100 scale) ([11]; 8 g a.i./ha): 80 | Plant response rating (0 to 100 scale) ([11]; 16 g a.i./ha): 98 | Plant response rating (0 to 100 scale) ([11]; 31 g a.i./ha): 98 | Plant response rating (0 to 100 scale) ([11]; 62 g a.i./ha): 100 | Plant response rating (0 to 100 scale) ([11]; 125 g a.i./ha): 100

COC(=O)c1nc(C2CC2)nc(N)c1Cl [Compound 9, methyl 6-amino-5-chloro-2-cyclopropyl-4-pyrimidinecarboxylate]
Plant response rating (0 to 100 scale) ([10]; 4 g a.i./ha): 0 | Plant response rating (0 to 100 scale) ([10]; 8 g a.i./ha): 20 | Plant response rating (0 to 100 scale) ([10]; 16 g a.i./ha): 25 | Plant response rating (0 to 100 scale) ([10]; 31 g a.i./ha): 38 | Plant response rating (0 to 100 scale) ([10]; 62 g a.i./ha): 38 | Plant response rating (0 to 100 scale) ([10]; 125 g a.i./ha): 40 | Plant response rating (0 to 100 scale) ([11]; 4 g a.i./ha): 75 | Plant response rating (0 to 100 scale) ([11]; 8 g a.i./ha): 100 | Plant response rating (0 to 100 scale) ([11]; 16 g a.i./ha): 100 | Plant response rating (0 to 100 scale) ([11]; 31 g a.i./ha): 100 | Plant response rating (0 to 100 scale) ([11]; 62 g a.i./ha): 100 | Plant response rating (0 to 100 scale) ([11]; 125 g a.i./ha): 100
